Literature values as cited in US20110052686A1, “MODIFIED RELEASE LAMOTRIGINE TABLETS” (RANBAXY LABORATORIES LIMITED, priority 2009, published 2011).

Details: oral administration

- effect of food on bioavailability: not affected by food
- first-pass metabolism: negligible first-pass metabolism
- time of peak plasma concentrations following drug administration: 1.4 to 4.8 h
Compound: Nc1nnc(-c2cccc(Cl)c2Cl)c(N)n1 [Lamotrigine, 3,5-diamino-6-(2,3-dichlorophenyl)-1,2,4-triazine]
